In the NIST ThermoML archive (doi:10.1021/je049777o):

Assay: xn = mol fraction of the nth substance listed
Conditions: 101.3 kPa, Liquid

Clc1ccccc1 [chlorobenzene] + COC(=O)OC
Conditions | mass density [kg/m3] | viscosity [mPa·s]
293.15 K, x2 = 0 | 1106.74 | 0.8084
293.15 K, x2 = 0.1225 | 1102.19 | 0.7794
293.15 K, x2 = 0.238 | 1097.84 | 0.7586
293.15 K, x2 = 0.3499 | 1093.69 | 0.7315
293.15 K, x2 = 0.4545 | 1089.67 | 0.7132
293.15 K, x2 = 0.5559 | 1085.85 | 0.698
293.15 K, x2 = 0.6518 | 1082.22 | 0.6805
293.15 K, x2 = 0.7445 | 1078.84 | 0.6567
293.15 K, x2 = 0.8332 | 1075.58 | 0.6449
293.15 K, x2 = 0.9182 | 1072.42 | 0.6244
298.15 K, x2 = 0 | 1101.33 | 0.7422
298.15 K, x2 = 0.1225 | 1096.65 | 0.7318
298.15 K, x2 = 0.238 | 1092.16 | 0.7193
298.15 K, x2 = 0.3499 | 1087.88 | 0.6956
298.15 K, x2 = 0.4545 | 1083.72 | 0.6864
298.15 K, x2 = 0.5559 | 1079.81 | 0.6627
298.15 K, x2 = 0.6518 | 1076.05 | 0.6427
298.15 K, x2 = 0.7445 | 1072.55 | 0.6226
298.15 K, x2 = 0.8332 | 1069.17 | 0.6017
298.15 K, x2 = 0.9182 | 1065.93 | 0.5856
303.15 K, x2 = 0 | 1095.96 | 0.7053
303.15 K, x2 = 0.1225 | 1091.12 | 0.6862
303.15 K, x2 = 0.238 | 1086.51 | 0.6624
303.15 K, x2 = 0.3499 | 1082.09 | 0.646
303.15 K, x2 = 0.4545 | 1077.8 | 0.6408
303.15 K, x2 = 0.5559 | 1073.76 | 0.6134
303.15 K, x2 = 0.6518 | 1069.91 | 0.6014
303.15 K, x2 = 0.7445 | 1066.28 | 0.5781
303.15 K, x2 = 0.8332 | 1062.78 | 0.5632
303.15 K, x2 = 0.9182 | 1059.45 | 0.5487
313.15 K, x2 = 0 | 1085.06 | 0.631
313.15 K, x2 = 0.1225 | 1079.97 | 0.6145
313.15 K, x2 = 0.238 | 1075.08 | 0.5875
313.15 K, x2 = 0.3499 | 1070.36 | 0.5709
313.15 K, x2 = 0.4545 | 1065.81 | 0.563
313.15 K, x2 = 0.5559 | 1061.54 | 0.5423
313.15 K, x2 = 0.6518 | 1057.46 | 0.5322
313.15 K, x2 = 0.7445 | 1053.56 | 0.5192
313.15 K, x2 = 0.8332 | 1049.86 | 0.4992
313.15 K, x2 = 0.9182 | 1046.32 | 0.4874
323.15 K, x2 = 0 | 1074.26 | 0.5677
323.15 K, x2 = 0.1225 | 1068.8 | 0.5546
323.15 K, x2 = 0.238 | 1063.63 | 0.5273
323.15 K, x2 = 0.3499 | 1058.61 | 0.5145
323.15 K, x2 = 0.4545 | 1053.8 | 0.5039
323.15 K, x2 = 0.5559 | 1049.32 | 0.4878
323.15 K, x2 = 0.6518 | 1044.96 | 0.4729
323.15 K, x2 = 0.7445 | 1040.83 | 0.4591
323.15 K, x2 = 0.8332 | 1036.88 | 0.4468
323.15 K, x2 = 0.9182 | 1033.12 | 0.4365
333.15 K, x2 = 0 | 1063.32 | 0.5069
333.15 K, x2 = 0.1225 | 1057.53 | 0.4954
333.15 K, x2 = 0.238 | 1052.07 | 0.4791
333.15 K, x2 = 0.3499 | 1046.76 | 0.4619
333.15 K, x2 = 0.4545 | 1041.66 | 0.452
333.15 K, x2 = 0.5559 | 1036.93 | 0.4401
333.15 K, x2 = 0.6518 | 1032.33 | 0.4277
333.15 K, x2 = 0.7445 | 1027.92 | 0.415
333.15 K, x2 = 0.8332 | 1023.72 | 0.4046
333.15 K, x2 = 0.9182 | 1019.74 | 0.3949
343.15 K, x2 = 0 | 1052.44 | 0.4658
343.15 K, x2 = 0.1225 | 1046.33 | 0.455
343.15 K, x2 = 0.238 | 1040.54 | 0.4326
343.15 K, x2 = 0.3499 | 1034.93 | 0.4242
343.15 K, x2 = 0.4545 | 1029.51 | 0.4142
343.15 K, x2 = 0.5559 | 1024.52 | 0.3978
343.15 K, x2 = 0.6518 | 1019.67 | 0.3879
343.15 K, x2 = 0.7445 | 1014.99 | 0.377
343.15 K, x2 = 0.8332 | 1010.53 | 0.3678
343.15 K, x2 = 0.9182 | 1006.31 | 0.3609

COC(=O)OC [dimethyl carbonate] + CCCCCC
Conditions | mass density [kg/m3] | viscosity [mPa·s]
293.15 K, x1 = 0.0961 | 685.68 | 0.3032
293.15 K, x1 = 0.193 | 712.34 | 0.3094
293.15 K, x1 = 0.2909 | 741.99 | 0.3213
293.15 K, x1 = 0.3894 | 774.82 | 0.341
293.15 K, x1 = 0.489 | 811.38 | 0.3647
293.15 K, x1 = 0.5893 | 851.98 | 0.3939
293.15 K, x1 = 0.6906 | 897.34 | 0.427
293.15 K, x1 = 0.7928 | 948.58 | 0.4715
293.15 K, x1 = 0.896 | 1006.55 | 0.542
293.15 K, x1 = 1 | 1069.54 | 0.6173
298.15 K, x1 = 0.0961 | 680.92 | 0.2901
298.15 K, x1 = 0.193 | 707.38 | 0.294
298.15 K, x1 = 0.2909 | 736.8 | 0.306
298.15 K, x1 = 0.3894 | 769.42 | 0.3232
298.15 K, x1 = 0.489 | 805.8 | 0.3449
298.15 K, x1 = 0.5893 | 846.19 | 0.3709
298.15 K, x1 = 0.6906 | 891.45 | 0.4024
298.15 K, x1 = 0.7928 | 942.39 | 0.4472
298.15 K, x1 = 0.896 | 1000.17 | 0.5031
298.15 K, x1 = 1 | 1062.95 | 0.5734
303.15 K, x1 = 0.0961 | 676.14 | 0.279
303.15 K, x1 = 0.193 | 702.37 | 0.2817
303.15 K, x1 = 0.2909 | 731.62 | 0.2923
303.15 K, x1 = 0.3894 | 764.04 | 0.3061
303.15 K, x1 = 0.489 | 800.21 | 0.3252
303.15 K, x1 = 0.5893 | 840.41 | 0.3502
303.15 K, x1 = 0.6906 | 885.48 | 0.3808
303.15 K, x1 = 0.7928 | 936.19 | 0.4221
303.15 K, x1 = 0.896 | 993.78 | 0.4748
303.15 K, x1 = 1 | 1056.35 | 0.5403
313.15 K, x1 = 0.0961 | 666.41 | 0.2513
313.15 K, x1 = 0.193 | 692.21 | 0.2555
313.15 K, x1 = 0.2909 | 721.04 | 0.2645
313.15 K, x1 = 0.3894 | 753.05 | 0.277
313.15 K, x1 = 0.489 | 788.82 | 0.2938
313.15 K, x1 = 0.5893 | 828.62 | 0.3163
313.15 K, x1 = 0.6906 | 873.34 | 0.3417
313.15 K, x1 = 0.7928 | 923.65 | 0.3763
313.15 K, x1 = 0.896 | 980.84 | 0.4229
313.15 K, x1 = 1 | 1043.01 | 0.4807
323.15 K, x1 = 0.0961 | 656.55 | 0.2333
323.15 K, x1 = 0.193 | 681.9 | 0.2344
323.15 K, x1 = 0.2909 | 710.27 | 0.2423
323.15 K, x1 = 0.3894 | 741.92 | 0.2536
323.15 K, x1 = 0.489 | 777.28 | 0.2681
323.15 K, x1 = 0.5893 | 816.69 | 0.288
323.15 K, x1 = 0.6906 | 861.07 | 0.3101
323.15 K, x1 = 0.7928 | 910.98 | 0.3404
323.15 K, x1 = 0.896 | 967.8 | 0.3781
323.15 K, x1 = 1 | 1029.59 | 0.427
333.15 K, x1 = 0.0961 | 646.44 | 0.213
333.15 K, x1 = 0.193 | 671.36 | 0.2167
333.15 K, x1 = 0.2909 | 699.25 | 0.2239
333.15 K, x1 = 0.3894 | 730.55 | 0.234
333.15 K, x1 = 0.489 | 765.5 | 0.2466
333.15 K, x1 = 0.5893 | 804.52 | 0.2639
333.15 K, x1 = 0.6906 | 848.53 | 0.2842
333.15 K, x1 = 0.7928 | 898.13 | 0.3117
333.15 K, x1 = 0.896 | 954.54 | 0.3447
333.15 K, x1 = 1 | 1016 | 0.3893
